The values below come from publication PMC4473678, “Swedish mutant APP-based BACE1 binding site peptide reduces APP β-cleavage and cerebral Aβ levels in Alzheimer’s mice” (Scientific Reports, 2015).

For data set [1] the following is noted: phase II, suspended June 2013; cited from earlier work. The source says: Although these BACE1-null abnormalities are relatively mild, they are complex neurological phenotypes that raise a concern that complete inhibition or entire absence of BACE1 function may not be fre ...
The subject of another data set is treated patients. Particulars: Phase III; cited from earlier work. An excerpt: Presenilin 1 and 2 (PS1/PS2), two integral membrane proteins found in the endoplasmic reticulum and Golgi apparatus, are the major enzymatic targets for γ-secretase inhibition for the treatment of AD[5]. However, apart from their roles in AD, PS1/PS2 also controls the Notch signaling pathway responsible for cell proliferation and differentiation during embryonic development. PS1/PS2-null mice have massive neuronal loss, skeletal defects, underdeveloped subventricular areas and severe hemorrhages, and only a few types of PS1/PS2-null mouse models survive after birth. Other subst ...

Data set [2] addresses recombinant BACE1 protein (β-site APP cleaving enzyme 1) (UniProt P56817).
For another data set, the system named is recombinant BACE1. The data set is described as follows: BACE1 activity (FRET) assay, cell-free. The format is biochemical. The conditions noted are these: for % of Inhibition of BACE1: FRET substrate Rh-EVNLDAEFK-quencher, dark, ex 545/em 585 nm, mean ± SD. As for the experimental part: The BACE1 inhibiting activity of APP-based BACE1 site binding peptides were determined using a fluorescence resonance energy transfer (FRET) assay (Pan Vera Co., Madison, WI), which employs a recombinant baculovirus-expressed BACE1 and a specific substrate (Rh-[…]-quencher) that is based on the APPswe mutation. This specific peptide substrate becomes highly fluorescent upon enzymatic cleavage. […] Then, 10 μL of BACE1 stop buffer (2.5 M sodium acetate) was added to the mixture. Fluorescence was read using a fluorometer, with excitation at 545 nm and emission at 585 nm.

A further data set deals with brain of 5XFAD mice. Particulars: mouse, in vivo.
In the next data set the test system is BACE1. Particulars: cited from earlier work.
Data set [3] has as its system recombinant BACE1 protein. The experiment in a line: Immunoprecipitation/WB of peptide-BACE1 binding, cell-free. Particulars: 10 μg biotin-labeled peptide with 10 μL recombinant BACE1 (1.0 U/mL), 4 h, 37 °C; anti-BACE1 IP/anti-biotin WB and reverse. As for the experimental part:
In order to confirm that APPsweBBP containing the β-cleavage site could bind to and be consequently proteolyzed by BACE1, 10 μg of biotin-labeled TAT-APPsweBBP was incubated with or without 10 μL of recombinant BACE1 protein (1.0 U/mL) in BACE1 reaction buffer for 4 h at 37 °C and then subjected to WB analysis as described previously. In addition, we performed immunoprecipitation (IP) and WB analyses of this mixture with anti-BACE1 and anti-biotin antibodies to confirm that TAT-APPsweBBP, but not TAT, specifically binds to BACE1.

For data set [4], the system named is WT mice. The experiment in a line: Radial arm water maze (RAWM), WT mice. The format is in vivo, mouse. Particulars: 100 nmol/kg i.p. daily, 8 weeks, n = 10 per treatment.
The test system of data set [5] is 5XFAD mice. The data set is described as follows: Rotarod test, 5XFAD mice. The format is in vivo, mouse. Particulars: 100 nmol/kg i.p. daily, 8 weeks, n = 10 per treatment. The protocol: (§1) Transgenic AD mice [5XFAD; B6SJL-Tg(APPSwFlLon,PSEN1*M146L*L286V) 6799Vas/Mmjax] at 2.5 months of age were obtained from the Jackson Laboratory (Bar Harbor, ME) and housed and maintained in the Animal Facility of College of Medicine at University of South Florida (USF). The mice at 3.5 months of age were treated with TAT-APPsweBBP, TAT peptide (100 nmol/kg in 100 μL PBS) or PBS (100 μL) daily by intraperitioneal injection (i.p.) for eight consecutive weeks. The mice were subjected to behavioral testing after 8-week treatment and then euthanized for immunohistochemical, WB and ELISA analyses. Animals were housed and maintained at USF and all experiments were in compliance with protocols approved by USF Institutional Animal Care and Use Committee. All methods were performed in accordance with relevant guidelines and regulations.
The rotarod task was also performed to exclude the possibility that positive effects of any treatment in RAWM test are due to improvements in sensorimotor ability. Mice were positioned on the rod (diameter 3.6 cm) of the equipment (Rotarod 7650 accelerating model; Ugo Basile, Biological Research Apparatus, Varese, Italy), which was initially set at 1.0 rpm. The rod was then allowed to steadily accelerate up to 40.0 rpm over a 3-min session and evaluation was made by monitoring latency to fall.
A general note: The rotarod test checks motor coordination on a turning rod.

In data set [6] the test system is WT mice. The data set is described as follows: Rotarod test, WT mice. The format is in vivo, mouse. Particulars: 100 nmol/kg i.p. daily, 8 weeks, n = 10 per treatment.
The next data set relates to Akt and MBP. The data set is described as follows: WB of myelin signaling (Akt, MBP) in brain homogenates, 5XFAD mice. The format is in vivo, mouse. The conditions noted are these: TAT-APPsweBBP, TAT and PBS groups compared. As for the experimental part: as §1
WB analysis was performed as previously described. Briefly, the proteins from the various cell-free suspensions, cell lysates and brain homogenates were electrophoretically separated using 10% bicine/tris gel (8 M urea) for proteins less than 5 kD or 10% tricine/tris gels for larger proteins. Electrophoresed proteins were transferred to polyvinylidene difluoride membranes (Bio-Rad, Richmond, CA), washed and blocked for 2 h at room temperature in Tris-buffered saline containing 5% (w/v) nonfat dry milk (TBS/NFDM). […]

Data set [7] has as its system 5XFAD mice. The experiment in a line: β-amyloid immunohistochemistry (4G8), 5XFAD mice. The class given is in vivo, mouse. The conditions noted are these: 100 nmol/kg i.p. daily, 8 weeks, RSC, EC and H regions, n = 10, 5 female/5 male. The protocol:
as §1
For paraffin brain tissues, we sectioned five coronal sections per region with a 100-μm interval and a thickness of 5-μm for retrosplenial cortex (RSC), entorhinal cortex (EC), and hippocampus (H), located at bregma −2.92 to −3.64 mm. […] Images were acquired as digitized tagged-image format files (to retain maximum resolution) using a BX60 microscope with an attached CCD camera system (DP-70, Olympus, Tokyo, Japan), and digital images were routed into a Windows PC for quantitative analyses using SimplePCI software (Hamamatsu Photonics, Hamamatsu, Shizuoka, Japan). […]

[8] abbreviates: peptide final concentration 20 μM, 90 min, room temperature.

“Also recorded” adds a separate entry of the source.

Chain of recombinant BACE1 protein (β-site APP cleaving enzyme 1) (P56817 46-501): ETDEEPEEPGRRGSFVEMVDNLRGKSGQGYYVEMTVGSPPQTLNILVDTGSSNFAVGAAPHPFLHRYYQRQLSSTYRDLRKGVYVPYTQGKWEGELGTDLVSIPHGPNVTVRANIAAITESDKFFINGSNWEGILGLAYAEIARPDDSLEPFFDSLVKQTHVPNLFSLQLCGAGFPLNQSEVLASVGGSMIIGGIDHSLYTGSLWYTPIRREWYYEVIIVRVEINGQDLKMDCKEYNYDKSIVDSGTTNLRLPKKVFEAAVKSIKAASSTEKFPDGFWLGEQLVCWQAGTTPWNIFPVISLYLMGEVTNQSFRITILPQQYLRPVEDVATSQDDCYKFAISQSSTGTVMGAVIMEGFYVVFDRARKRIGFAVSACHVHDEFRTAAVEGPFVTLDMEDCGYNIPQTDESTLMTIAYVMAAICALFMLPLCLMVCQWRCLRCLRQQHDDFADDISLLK
Description for brain of 5XFAD mice: 5XFAD mice at 2 months of age (n = 5, female) were treated intraperitoneally with biotin-labeled TAT-APPsweBBP or APPsweBBP (100 nmol/kg) daily for 5 days and then euthanized 4 h after the last injection. Brain tissues were removed, sectioned and stained with anti-BACE1 and anti-biotin antibodies.
Fixed cell cultures and brain sections were stained with indicated antibodies and then treated with donkey anti-mouse IgG conjugated with Alexa Fluor 488 (1:200) or goat anti-rabbit IgG conjugated with Alexa Fluor 594 (1:200; Invitrogen, Carlsbad, CA). The slides were then washed, mounted with DAPI medium (Vector Laboratories, Burlingame, CA) and visualized with an Olympus FV1000 confocal microscope (Tokyo, Japan).

For `NC1=N[C@@]2(c3cc(NC(=O)c4ccc(F)cn4)ccc3F)COC[C@H]2CS1` [LY2886721], the liver toxicity result in data set [1] was “possible liver toxicity”.
Turning to `CC(C)[C@H](O)C(=O)N[C@@H](C)C(=O)N[C@@H]1C(=O)N(C)CCc2ccccc21` [semagacestat], in the data set with treated patients, the “activities of daily living and cognition” value was “activities of daily living and cognition even worsened in the treated patients”.
As for “APPswe BACE1 binding site peptide (APPsweBBP) (from UniProt P05067 665-676)”, the percent inhibition of BACE1 activity in a cell-free FRET assay (substrate Rh-…-quencher), peptide at 20 μM in data set [2] came out at 38.4%.
Same read-out and setting: the result for “APPwt BACE1 binding site peptide (APPwtBBP)” reads 16.2%.
As for EISEVKMDAEFR, in the data set with recombinant BACE1 (setting [8]), the “% of Inhibition of BACE1” value came to 16.23 ± 0.29%.
For EISEVNLDAEFR, the “BACE1 inhibition (result in words)” value with recombinant BACE1 (FRET assay, APPsweBBP or TAT-APPsweBBP at 0.05, 0.5, 5 and 20 μM (Fig. 1)) is given as “strongly inhibits BACE1 activity; also recorded: competitively inhibits the cleavage of commercial BACE1 substrate; also recorded: most effective BACE1 inhibitor; also recorded: much greater”. In the data set on recombinant BACE1 (FRET assay, peptide final concentration 20 μM, 90 min, room temperature), the “percentage inhibition of BACE1” value is listed as ~ 40%. In addition, the “% of Inhibition of BACE1” value in the data set on recombinant BACE1 (setting [8]) was 38.43 ± 1.01%. Also, the “BBB penetration (Fig. S4 legend)” value in the data set with brain of 5XFAD mice is given as “stopped at the capillary lumen”. The “biotin distribution, 5XFAD versus WT control mice” value with brain of 5XFAD mice (ip) is given as “No noticeable differences in biotin distribution”.
In the case of EVKMDAEFR, the “% of Inhibition of BACE1” value in the data set on recombinant BACE1 (setting [8]) amounted to 4.89 ± 0.06%.
EVNLA*AEF [OM99-2]: in the data set with BACE1, the BBB crossing entry is given as “too large to cross the BBB”, the potency result is “high level of potency” and the stability result is “not stable enough for use in therapeutic trials”.
On to EVNLDAEFR, for which, in the data set on recombinant BACE1 (setting [8]), the “% of Inhibition of BACE1” value came out at 14.32 ± 0.04%.
For the compound “TAT-APPwtBBP (APPwt BACE1 binding site peptide fused with TAT)”, the percent inhibition of BACE1 activity in a cell-free FRET assay (substrate Rh-…-quencher), peptide at 20 μM in data set [2] was 21%.
Regarding “YGRKKRRQRRR [TAT (YGRKKRRQRRR), reference compound]”, the “% of Inhibition of BACE1” value in the data set on recombinant BACE1 (setting [8]) is listed as 3.32 ± 0.02%. For the same compound, the “binding to BACE1 (co-immunoprecipitation)” value in [3] is “but not TAT peptide, binds to BACE1”. Also, in the data set on WT mice [4], the RAWM entry-arm errors result is on record as “no difference among the various treatment groups”. Further, the “rotarod latency to fall / motor performance” value in the data set on 5XFAD mice [5] was “no differences between treatment groups on each day”. Also, the “rotarod latency to fall” value in the data set with WT mice [6] is listed as “no differences between treatment groups on each day”. For the same compound, in the data set on Akt and MBP, the “Akt (total/phosphorylated) in brain homogenates” value was “differ between TAT-APPsweBBP-, TAT- and PBS-treated 5XFAD mice”; the “myelin basic protein (MBP) expression in brain homogenates” value is “differ between TAT-APPsweBBP-, TAT- and PBS-treated 5XFAD mice”. The “β-amyloid plaques / 4G8 immunoreactive area” value in the data set on 5XFAD mice [7] was “no significant difference between TAT peptide and PBS groups”.
With “YGRKKRRQRRREISEVKMDAEFR [APPwtBBP fused with TAT]”, the “% of Inhibition of BACE1” value with recombinant BACE1 (setting [8]) amounted to 21.01 ± 1.42%.
“biotin-labeled TAT-APPsweBBP (human Swedish mutant APP BACE1 binding site peptide conjugated to the HIV-1 TAT protein-transduction domain) (from UniProt P05067 665-676)”: the percent inhibition of BACE1 activity in a cell-free FRET assay (substrate Rh-…-quencher), peptide at 0.05, 0.5, 5 and 20 μM in [2] was > 90%.
